# From patent US12624031B2, “Inhibitors of ubiquitin specific peptidase 22 (USP22) and uses thereof for treating diseases and disorders” (Northwestern University, priority 2022, dated 2026)
# Experiments:
# [1] = test system: PD-L1 expression in A549 cells; assay: PD-L1 expression in A549 cells by flow cytometry; format: cell-based, human; settings: Homo sapiens; A549 cells, 48 hours; unit inferred; read-out: IC50 inhibition of PD-L1 expression
# Procedure: FIG. 13: The effects of USP22i-S02-S106 on suppression of PD-L1 expression on human lung adenocarcinoma cells. Human […] lung adenocarcinoma A549 cells were treated with S02-S106 or its lead compound S02 for 48 hours. The expression levels of PD-L1 were determined by flow cytometry. (A) Representative flow data from A549 cells treated with 2 μM S02-S106 or with 15 μM S02 are shown. DMSO treated cells were used as an untreated control and USP22 CRISPR knockout A549 cells were used as a positive control. (B) The dose-dependent inhibition of PD-L1 expression in A549 cells by S02-S106 with USP22i-S02 as a control. Data were normalized with PD-L1 expression levels in USP22-KO cells as 100% of USP22 inhibition as shown in A. (C) Inhibition of PD-L1 expression in WT and USP22-null A549 cells by S02-S106.
# We then used PD-L1 expression level as a measurement to evaluate the inhibitory efficacy of USP22 by S02-S106.
# To determine the specificity of USP22i-S02-S106, we treated the WT and USP22-null lung cancer cells.
# [2] = test system: LLC1 tumors in WT mice; assay: LLC1 tumor model in WT mice; format: in vivo
# Procedure: FIG. 5: Usp22 inhibitor administration enhances antitumor immunity. A, Structure of compound CS30 (Usp22i-S02). B, FOXP3 MFI in WT and 22KO of Treg cells after treatment with 20 μg/kg of Usp22i-S02 in vivo (n=3). C, Representative flow cytometry plot of FOXP3+CD25+MFI of CD4+ peripheral cells of mice treated with 20 μg/kg of Usp22i-S 02 relative to control (n=5). D, Graphical representation of Foxp3 MFI upon Usp22i-S02 administration (n=5). E, Tumor growth curve of LLC1 cells subcutaneously injected in the flank of WT mice with or without the addition of 20 mg/kg/time of the Usp22 inhibitor starting at day 15, in 100 μL of oil (n=4). F-G, Representative flow cytometry plot and graphical representation of % infiltration of CD4+ and CD8+ T cells within the tumor (n=4). H, Representative histogram plot and graphical representation of intratumoral Treg (itTreg) Foxp3 MFI (n=4). I, MFI of itTreg suppressive markers (n=3-4). J, Percent Foxp3+IFNg+itTreg cells in control and Usp22-S02 treated mice (n=3-4). B, D-E, G, H-I Two-way ANOVA with multiple comparisons between rows was performed to determine statistical significance. J, Unpaired two tailed T test was performed to determine significance. All data are presented as mean±stdev. NS, not significant. *P<0.05, **P<0.01, ***P<0.001, ****P<0.0001.
# FIG. 7: Usp22i-S02 has little effect on naïve mice, yet enhances anti-tumor immunity in LLC1-challenged mice. A, Body weight of Usp22i-S02 treated mice verses DMSO treated controls over the course of treatment (n=4). A-F. Injections were twice a day for 3 consecutive days at 10 μg/kg (n=4). B, Percent of cell populations in naïve mice treated with Usp22i-S02 relative to DMSO control (n=3-4). C, Percent of KI-67+ cells in various compartments in naïve mice treated with Usp22i-S02 relative to DMSO control (n=3-4). D, Percent CD44^hiCD62L^lo in T cell populations gated on CD45+ cells in naïve mice treated with Usp22i-S02 relative to DMSO control (n=3). E, Percent Annexin+PI+ T cells gates on CD45+ cells in naïve mice treated with Usp22i-S02 relative to DMSO control (n=4). F-H, Organ toxicity panel (VetScan VS2 Comprehensive Diagnostic Rotor lot 1061AA2) of naïve mice treated with Usp22i-S02 relative to DMSO control (n=2-3). I, Growth curve of subcutaneously injected LLC1 in WT mice treated with Usp22i-S02 at 10 μg/kg (n=5-10). I-Q, Injections were twice a day for 5 consecutive days at 10 μg/kg. J, Weights of resected tumors at day 16 from I (n=10). K-L, Representative flow plot and graphical representation of infiltrating T cells gated on CD45+ cells (n=5). M-P, Characterization of intratumoral CD8+ T cells frome mice treated with Usp22i-S02 (n=3-5). Q, Percent of intratumoral Treg cells from mice treated with Usp22i-S02 verses DMSO control, gated on CD4+Foxp3+ from mice (n=5). A-E, I and L, Two-way ANOVA with Sidaks's multiple comparisons between rows relative to control was performed to determine statistical significance. F-H, J, and M-Q, Two-tailed unpaired t-test was performed to determine statistical significance. All data are presented as mean±stdev. NS, not significant. *P<0.05, **P<0.01, ***P<0.001, ****P<0.0001.
# To determine the functionality of Usp22i-S02 as a potential therapeutic, we tested the inhibitor on established tumors. […] Further analysis of tumor infiltrating lymphocytes was done on mice treated immediately following tumor implantation (FIG. 7I).
# LLC1 cells were transplanted into 6-to-8-week-old C57BL/6 male mice. Subcutaneous injections were performed in the right flank of mice in a final volume of 100 μL using […] per injection. The USP22i-S02 was injected intraperitoneally (i.p) at a concentration of 20 mg/kg/time, in 100 μL of oil, twice a day for 5 days beginning on the day of the LLC1 cells injection. Control animals received 100 μL of oil alone. Subcutaneous tumor diameters were measured daily with calipers until any tumor in the mouse cohort reached 2.5 cm in its largest diameter.
compound,measurement,setting,value
"N#Cc1c2c(c(Nc3ccccc3)n3c1nc1ccccc13)CCCC2 [USP22i-S02, 11-anilino-7,8,9,10-tetrahydrobenzimidazo[1,2-b]isoquinoline-6-carbonitrile]",IC50,[1],13.7 µM
same,tumor growth of established LLC1 tumors,"[2]; WT mice, 20 mg/kg/time starting at day 15",striking tumor rejection
same,itTreg GITR and PD-1 levels,[2]; established LLC1 tumors,lower levels of GITR and PD-1
same,itTreg IFN-γ levels,[2]; established LLC1 tumors,significantly higher levels of IFN-γ
same,Teff cell tumor infiltration,"[2]; established LLC1 tumors, WT mice",significant increase in Teff cell tumor infiltration
same,intratumoral Foxp3+ Treg percentage,"[2]; established LLC1 tumors, not splenic",significantly decreased
same,intratumoral CD8+ T cell phenotype,[2]; treated immediately following tumor implantation,less exhausted phenotype
same,intratumoral Foxp3+ Treg percentage,[2]; treated immediately following tumor implantation (FIG. 7Q),significantly decreased
same,tumor burden,"[2]; treated immediately following tumor implantation, twice a day for 5 days at 10 μg/kg",decreased tumor burden
